# From patent EP1757607A1, “N5-substituted benzo¬2,3|azepino¬4,5-b|indol-6-ones for treating tropical diseases” (Molisa GmbH, priority 2005, dated 2007)
# What was measured:
# [1] = biological target: T1, Trypanothione Synthetase TS (Crithidia fasciculata, UniProt O60993); test: Inhibition of Trypanothione Synthetase (Table 1); format: biochemical; details: compound concentration not stated for Table 1
# T1 sequence (O60993 1-652): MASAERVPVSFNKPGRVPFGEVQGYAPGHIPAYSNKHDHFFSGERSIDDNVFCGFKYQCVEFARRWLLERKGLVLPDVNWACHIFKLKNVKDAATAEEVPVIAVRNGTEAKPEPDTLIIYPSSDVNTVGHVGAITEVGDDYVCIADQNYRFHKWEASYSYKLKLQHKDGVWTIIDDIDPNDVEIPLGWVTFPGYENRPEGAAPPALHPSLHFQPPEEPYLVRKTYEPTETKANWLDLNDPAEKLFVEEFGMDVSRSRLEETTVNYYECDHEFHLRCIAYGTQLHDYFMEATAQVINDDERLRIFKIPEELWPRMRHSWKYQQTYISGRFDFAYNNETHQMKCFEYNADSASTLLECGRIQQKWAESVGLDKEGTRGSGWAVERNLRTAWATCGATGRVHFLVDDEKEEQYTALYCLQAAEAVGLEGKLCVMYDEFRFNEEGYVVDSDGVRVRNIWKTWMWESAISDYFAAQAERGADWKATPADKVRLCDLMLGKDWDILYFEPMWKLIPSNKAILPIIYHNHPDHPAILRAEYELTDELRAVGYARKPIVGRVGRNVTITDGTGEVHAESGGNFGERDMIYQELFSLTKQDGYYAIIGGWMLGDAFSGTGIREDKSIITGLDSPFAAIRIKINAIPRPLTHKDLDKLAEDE
# TryS = biological target: T2, TryS (Crithidia fasciculata, UniProt O60993); test: Screening of potential inhibitors against TryS (malachite green, A650); format: biochemical; details: 10 µM compound; 90.75 nM TryS, 0.675 mM GSH, 6.75 mM spermidine, 45 µM ATP, room temperature, 60 min; triplicates; read-out: inhibitory effect (%)
# T2 sequence (O60993 1-652): T1 sequence (O60993 1-652)
# Description: The compounds were screened against TryS at 10 µM compound concentration. The inhibitory effect of each compound on TryS was measured in triplicates. Obvious outliers from the triplicates were removed. If the standard deviation of the two remaining inhibition values exceeded 25 % the measurement was repeated.
# The screen was performed under the following conditions: 90.75 nM TryS was incubated with 0.675 mM GSH, 6.75 mM spermidine, 45 µM ATP, and 10 µM compound in a total volume of 80 µl 100 mM HEPES pH 7.5, 10 mM MgSO4, 0.1 mM EDTA, 5 mM DTT at room temperature for 60 min. Reaction was stopped by addition of 10 µl malachitgreen reagent. A650 was measured after 20 min. No compound was present in the positive controls (C+). Neither GSH nor spermidine was present in the negative controls (C-).
Compound,Inhibition of TS % [1] [%],inhibition at 10 µM (TryS) [%]
"CNCCNC(=O)CN1C(=O)Cc2c([nH]c3ccc(Br)cc23)-c2ccccc21 [Compound 13, 2-(9-Bromo-6-oxo-6,7-dihydro-5H-benzo[2,3]azepino[4,5-b]indol-5-yl)-N-(2-methylamino-1-yl-ethyl)-acetamide]",92.4,–
"2-(9-Bromo-6-oxo-6,7-dihydro-5H-benzo[2,3]azepino[4,5-b]indol-5-yl)-acetic acid hydrazide [Compound 26]",0,–
"NCCCNC(=O)CN1C(=O)Cc2c([nH]c3ccc(Br)cc23)-c2ccccc21 [Compound 18, N-(3-Amino-1-yl-propyl)-2-(9-bromo-6-oxo-6,7-dihydro-5H-benzo[2,3]azepino[4,5-b]indol-5-yl)-acetamide]",37.8,85.1
"NCCNC(=O)CN1C(=O)Cc2c([nH]c3ccc(Br)cc23)-c2ccccc21 [Compound 17, N-(2-Amino-1-yl-ethyl)-2-(9-bromo-6-oxo-6,7-dihydro-5H-benzo[2,3]azepino[4,5-b]indol-5-yl)-acetamide]",78.6,96.8
"NCCCCNCCCNC(=O)CN1C(=O)Cc2c([nH]c3ccc(Br)cc23)-c2ccccc21 [Compound 21, N-(3-(4-Amino-1-yl-butylamino)-1-yl-propyl)-2-(9-bromo-6-oxo-6,7-dihydro-5H-benzo[2,3]azepino[4,5-b]indol-5-yl)-acetamide]",22.5,47.6
"NCCCCNC(=O)CN1C(=O)Cc2c([nH]c3ccc(Br)cc23)-c2ccccc21 [Compound 19, N-(4-Amino-1-yl-butyl)-2-(9-bromo-6-oxo-6,7-dihydro-5H-benzo[2,3]azepino[4,5-b]indol-5-yl)-acetamide]",16.2,54.3
"CNCCNC(=O)CN1C(=O)Cc2c([nH]c3ccc(C#N)cc23)-c2ccccc21 [Compound 22, 2-(9-Cyano-6-oxo-6,7-dihydro-5H-benzo[2,3]azepino[4,5-b]indol-5-yl)-N-(2-methylamino-1-yl-ethyl)-acetamide]",51.7,–
"CNCCNC(=O)CN1C(=O)Cc2c([nH]c3ccccc23)-c2ccccc21 [Compound 23, N-(2-Methylamino-1-yl-ethyl)-2-(6-oxo-6,7-dihydro-5H-benzo[2,3]azepino[4,5-b]indol-5-yl)-acetamide]",0,–
"NCCCNCCCCNC(=O)CN1C(=O)Cc2c([nH]c3ccc(Br)cc23)-c2ccccc21 [Compound 20, N-(4-(3-Amino-1-yl-propylamino)-1-yl-butyl)-2-(9-bromo-6-oxo-6,7-dihydro-5H-benzo[2,3]azepino[4,5-b]indol-5-yl)-acetamide]",24.6,47.6
"O=C(CN1C(=O)Cc2c([nH]c3ccc(Br)cc23)-c2ccccc21)N1CCNCC1 [Compound 25, N-[2-(9-Bromo-6-oxo-6,7-dihydro-5H-benzo[2,3]azepino[4,5-b]indol-5-yl)-acetyl]-piperazine]",76.5,–
"CNCCNC(=O)CN1C(=O)Cc2c([nH]c3ccc(C)cc23)-c2ccccc21 [Compound 24, 2-(9-Methyl-6-oxo-6,7-dihydro-5H-benzo[2,3]azepino[4,5-b]indol-5-yl)-N-(2-methylamino-1-yl-ethyl)-acetamide]",20.5,–
